Measured values: patent US7557142B2, “Therapeutic use of methionine to reduce the toxicity of platinum-containing anti-tumor compounds” (Board of Trustees of Southern Illinois University, priority 1996, dated 2009)
Entries after “also recorded” stand apart in the source; their conditions may differ. Structures can show the parent of a compound that is named as a salt.

Legend:
[1] = parenteral administration in humans; Printen et al., 1979; cited from earlier work
[2] = test system: NHIK 3025 in vitro human uterine cervix carcinoma in situ cancer cells; details: methionine, presumably a racemic mixture; Melvik and Petterson, 1987; cited from earlier work
[3] = test system: rats; details: cited from earlier work; for CDDP nephroprotection: literature (Jones et al.; others)
[4] = literature; cited from earlier work
[5] = test system: male Wistar rats; assay: Scanning electron microscopy, outer hair cell count per cochlear turn; format: in vivo, rat; details: for outer hair cell findings, middle and basal turns: versus untreated control, 75, 150, 300 mg/kg D-Met prior to 16 mg/kg CDDP
Experimental: (§1) Complete data sets were obtained for five groups of five male Wistar rats (280-421 g). All animals were anesthetized with […] IM of Rompun cocktail (a solution containing 86.21 mg/ml ketamine and 2.76 mg/ml xylazine) prior to all injections and testing. Anesthesia was supplemented as needed with half doses throughout testing.
(§2) ABR data were analyzed using a three factor analysis of variance (ANOVA) with one between subject factor (groups) and two within subject factors (frequency and pre- vs. post-test). Each dependent variable was analyzed independently. Tests subsequent to the ANOVA were carried out in accordance with the Tukey HSD procedure. Weight loss and/or gastrointestinal protection was measured using the same type of statistical analysis as the ABR measures. SEM data were analyzed for each turn using a one way analysis of variance with Post-Hoc Tukey HSD analysis. The criterion for statistical significance for all measures was p≦0.01.

[6] = test system: male Wistar rats
Experimental: as §1

[7] = test system: patients; details: human, in vivo; cited from earlier work
[8] = test system: Walker 256 carcinosarcoma; details: rat, in vivo; cited from earlier work
[9] = literature; cited from earlier work; remark: listed apart in the source
[10] = test system: male Wistar rats; assay: Auditory Brainstem Testing (ABR) of auditory threshold, D-Met before CDDP; format: in vivo, rat
[11] = test system: male Wistar rats; remark: listed apart in the source
Experimental: as §1
Each animal's weight was measured in an Ohaus triple beam balance scale before administration of the anesthetic for the pretest and again before the post-test 3 days later.
as §2

[12] = test system: animals; details: literature, cited from earlier work
[13] = test system: patients; details: cited from earlier work
[14] = test system: hamsters; details: Church et al. (1995); cited from earlier work
[15] = 16 mg/kg CDDP alone (treated control)

CSCCC(N)C(=O)O (racemic) [DL-methionine]
plasma levels of isomers [1]: higher plasma levels of the D- isomer

CSCC[C@H](N)C(=O)O (racemic) [methionine]
effect of preadministration on CDDP cytotoxicity [2]: sensitized NHIK 3025 in vitro human uterine cervix carcinoma in situ cancer cells to CDDP cytotoxicity

CSc1ncccc1C(=O)O [2-(methylthio)nicotinic acid]
CDDP nephroprotection [3]: does not provide nephroprotection in rats

O=C(O)CCCC[C@@H]1SC[C@@H]2NC(=O)N[C@@H]21 [Biotin]
CDDP nephroprotection [3]: good CDDP nephroprotection
effect on CDDP anti-tumor action [4]: inhibits anti-tumor activity

N.N.[Cl][Pt][Cl] [CDDP, cis-diamminedichloroplatinum(II)]
outer hair cell findings, middle and basal turns [5]: significantly different findings from the untreated control group
animals surviving to the end of the study period [6, 15]: 5/10
animals that did not survive to the end of the study period [6, 15]: 50%
patients with hearing loss having complete recovery [7]: one of 121
time to complete redistribution after tumor uptake [8]: ≤ 15 min

C[C@H](CS)C(=O)N1CCC[C@H]1C(=O)O [Captropril]
CDDP nephroprotection [3]: protects against CDDP nephrotoxicity

CC1=C(C(=O)O)N2C(=O)[C@@H](NC(=O)[C@H](N)c3ccccc3)[C@H]2SC1 [Cephalexin]
prevention of CDDP kidney pathology ([3]; Jones et al., 1992): does not prevent kidney pathology
CDDP nephroprotection [3]: protects against CDDP-induced kidney dysfunction and weight loss
protection against CDDP-induced weight loss [9]: protects against CDDP-induced kidney dysfunction and weight loss

CSCC[C@@H](N)C(=O)O [D-Met, D-methionine]
hair cell counts, apical turn ([5]; all groups, apical turn): essentially normal hair cell counts
outer hair cell findings, middle and basal turns [5]: only the treated control group showed significantly different findings
CDDP nephroprotection [3]: highly effective CDDP nephroprotection
alopecia: coat and hair loss versus control group animals ([6]; D-Met prior to 16 mg/kg CDDP): significantly less hair loss
neuroprotection: activity and coordination versus surviving treated controls ([6]; morning of the third day, D-Met prior to 16 mg/kg CDDP): noticeably more lively, active, and coordinated
animals with complete otoprotection as defined by no significant ABR threshold shift for any stimulus ([10]; 75 mg/kg D-Met i.p. 30 minutes prior to 16 mg/kg CDDP, ABR 3 days later): 2/5
animals with complete otoprotection as defined by no significant ABR threshold shift for any stimulus ([10]; 150 mg/kg D-Met i.p. 30 minutes prior to 16 mg/kg CDDP, ABR 3 days later): 3/5
animals with complete otoprotection for all stimulus conditions ([10]; 300 mg/kg D-Met i.p. 30 minutes prior to 16 mg/kg CDDP, ABR 3 days later): 5 animals
ABR thresholds compared with treated control group, all stimuli ([10]; any level of D-Met (75, 150, 300 mg/kg) prior to 16 mg/kg CDDP, p≦0.01): significantly lower ABR thresholds than the treated control group
weight loss compared with treated control group ([11]; 300 mg/kg D-Met prior to 16 mg/kg CDDP, 3 days): significantly less than that in the treated control group
CDDP-induced weight loss versus D-Met dose ([11]; 75, 150, 300 mg/kg D-Met prior to 16 mg/kg CDDP): diminished as D-Met dosing increased

CCN(CC)C(=S)S [DDTC, diethyldithiocarbamate]
side effects of the protective agent [12]: can produce severe side effects

CCOC(=O)[C@@H](N)CS [Ethyl-L-cysteinate]
CDDP nephroprotection [3]: exacerbate CDDP nephrotoxicity

CSCC[C@H](N)C(N)=O [L-methioninamide]
CDDP nephroprotection [3]: excellent CDDP nephroprotection
effect on CDDP anti-tumor action [4]: impairs CDDP anti-tumor action

CC(S)C(=O)NCC(=O)O (stereo not shown) [N-(2-mercapto-propionyl)glycine]
CDDP nephroprotection [3]: exacerbate CDDP nephrotoxicity

O=S([O-])([O-])=S.[Na+].[Na+] [STS, sodium thiosulfate]
CDDP otoprotection ([12]; animals): good CDDP otoprotection
CDDP nephroprotection [3]: reduces CDDP nephrotoxicity
protection against CDDP-induced weight loss [9]: may exacerbate CDDP-induced weight loss and mortality
effect on CDDP anti-tumor action [4]: may reduce CDDP tumoricidal action; also recorded: reduces the latter's tumoricidal action

Nc1ccc(S(=O)(=O)Nc2nccs2)cc1 [Sulfathiazole]
CDDP nephroprotection [3]: provides protection against CDDP nephrotoxicity

NCCCNCCSP(=O)(O)O [WR2721]
effect on nausea and vomiting ([13]; Glover et al., 1987): does not ameliorate nausea and vomiting
CDDP nephroprotection ([13]; Mollman et al., 1988): excellent CDDP nephroprotection
patients with mild to severe hearing loss ([13]; WR2721 prior to CDDP, Glover et al. (1987)): 20 of 36
incidence of significant hearing threshold shift ([13]; patients pretreated with WR2721 prior to CDDP, Rubin et al. (1995)): 45%
protection from CDDP ototoxicity or mortality [14]: no WR2721 protection from ototoxicity or mortality

CO[C@@]1(NC(=O)Cc2cccs2)C(=O)N2C(C(=O)O)=C(COC(N)=O)CS[C@@H]21 [cefoxitin]
CDDP nephroprotection [3]: does not provide nephroprotection
protection against CDDP-induced weight loss [9]: some protection against CDDP-induced weight loss

CC1(C)S[C@@H]2[C@H](NC(=O)Cc3ccccc3)C(=O)N2[C@H]1C(=O)[O-].[Na+] [sodium salt of penicillin G, penicillin G]
CDDP nephroprotection [3]: does not protect against CDDP nephrotoxicity or weight loss
protection against CDDP-induced weight loss [9]: does not protect against CDDP nephrotoxicity or weight loss

Cc1ncc(C[n+]2csc(CCO)c2C)c(N)n1 [thiamine-HCl]
CDDP nephroprotection [3]: does not protect against cisplatin nephrotoxicity or weight loss
protection against CDDP-induced weight loss [9]: does not protect against cisplatin nephrotoxicity or weight loss
